Five compounds from US20090312335A1 (priority 2005, published 2009) can be followed below.

pIC50: −log10 of the molar value.

The assay deals with HIV replication. The assay can be described thus: Inhibition of acute HIV infection with HeLa P4-2 cells, single cycle infectivity ("vertical") assay. It counts as cell-based. The following applies: Human immunodeficiency virus 1, HeLaP4-2. An excerpt: The inhibitory activity of the compounds of the present invention may be measured by assays known in the art. […] Preferred compounds have IC50 values of ≦1 micromolar in this integrase assay. […] 1992, 66, 2232 for measuring the inhibition of acute HIV infection with HeLa P4-2 cells in a single cycle infectivity assay.
An assay for measuring the inhibition of acute HIV infection with HeLa P4-2 cells in a single cycle infectivity assay (alternatively referred to as the “vertical” assay) was conducted in accordance with Joyce, J. G., et al., J. Biol. Chem., 2002, 277, 45811, Hazuda, D. J. et al., Science, 2000, 287, 646, and Kimpton, J. et al, J. Virol. 1992, 66, 2232.
In the case of `CN1C[C@H](c2ccccc2)n2nc(-c3nnc(Cc4ccc(F)cc4)s3)c(O)c2C1=O` [Example 4, (7S)-2-[5-(4-Fluorobenzyl)-1,3,4-thiadiazol-2-yl]-3-hydroxy-5-methyl-7-phenyl-6,7-dihydropyrazolo[1,5a]pyrazin-4(5H)-one], the pIC50 is > 4.46.

On to `CN1CCn2cc(-c3nnc(Cc4ccc(F)cc4)s3)c(O)c2C1=O` [Example 1, 7-[5-(4-Fluorobenzyl)-1,3,4-thiadiazol-2-yl]-8-hydroxy-2-methyl-3,4-dihydropyrrolo[1,2-a]pyrazin-1(2H)-one], for which the pIC50 is > 4.46. Next, `CN1C[C@H](c2ccccc2)n2nc(-c3nnc(Cc4ccc(F)cc4)o3)c(O)c2C1=O` [Example 5, (7S)-2-[5-(4-Fluorobenzyl)-1,3,4-oxadiazol-2-yl]-3-hydroxy-5-methyl-7-phenyl-6,7-dihydropyrazolo[1,5a]pyrazin-4(5H)-one]: > 4.46. In the case of `CN1CCn2cc(-c3nnc(Cc4ccc(F)cc4)o3)c(O)c2C1=O` [Example 2, 7-[5-(4-Fluorobenzyl)-1,3,4-oxadiazol-2-yl]-8-hydroxy-2-methyl-3,4-dihydropyrrolo[1,2-a]pyrazin-1(2H)-one], the pIC50 was > 4.46. Regarding `CN1CCn2cc(-c3nnc(Cc4ccc(F)cc4)[nH]3)c(O)c2C1=O` [Example 3], the negative-log IC50 (pIC50) is > 4.46.
